Measurements as given in US12036237B2, “Bromide source for use in treating autism spectral disorder” (INSERM (INSTITUT NATIONAL DE LA SANTE ET DE LA RECHERCHE …, priority 2016, dated 2024).
Entries after “also recorded” stand apart in the source; their conditions may differ.

Assays:
[1] = system: Fmr1−/− mice; assay: Three-chamber social novelty preference test; format: in vivo; settings: bromide 250 mg/kg i.p. daily
Method: (§1) Sodium bromide (anhydrous, Sigma-Aldrich, Saint-Quentin, France) dissolved in saline solution (NaCl, 0.9%) at the dose of 250 or 500 mg/kg, or vehicle (NaCl, 0.9%), was administered intraperitoneally once a day for 19 days in a volume of 20 ml/kg. On testing days, bromide was administered 30 min before behavioural assays. Bumetanide (Tocris, provided by Bio-Techne, Lille, France) dissolved in NaCl 0.9% at the dose of 0.5 mg/kg (Deidda et al, 2015) or vehicle was administered intraperitoneally once a day for 19 days in a volume of 20 ml/kg.
(§2) Behavioural assays started after a week of daily bromide (or bumetanide) treatment.
(§3) Three-chamber social novelty preference test.

[2] = system: Shank3B−/− mice; assay: Three-chamber social novelty preference test; format: in vivo; settings: bromide 250 mg/kg i.p. daily
Method: as §1, §2, §3

[3] = system: Fmr1−/− mice; assay: Direct social interaction test; format: in vivo
Method: as §1, §2
(§4) Direct social interaction.

[4] = system: Shank3B−/− mice; assay: Direct social interaction test; format: in vivo
Method: as §1, §2, §4

[5] = system: Oprm1−/− mice; assay: Direct social interaction test
[6] = system: Oprm1−/− mice; assay: Motor stereotypies scoring; settings: Example 2, Oprm1 wild-type and mutants, bromide 250, 500 mg/kg
[7] = social interaction and three-chamber tests, bromide 250 mg/kg
[8] = Example 2, Oprm1−/− mice, bromide 250, 500 mg/kg i.p. daily
[9] = Example 2, male and female Oprm1−/− mice, bromide 250, 500 mg/kg
[10] = Oprm1−/− mice, bromide 125, 250, 500 mg/kg i.p. daily vs saline
[11] = Oprm1−/− mice, bumetanide 0.5 mg/kg

## [Br-].[Na+] [bromide, Sodium bromide]
[1]; Fmr1 knockout or wild-type
  number of close contacts with the mouse: no significant effect
  preferential time spent in the compartment with the mouse: no significant effect
[1]; Fmr1−/− mice
  duration of close contacts with the mouse versus the toy: increased; also recorded: restored
  preference in time spent in close contact with the mouse versus the toy: increased; also recorded: restored
[2]; Shank3B line
  number of close contacts with the mouse versus the toy: no significant effect
  preferential time spent in the compartment with the mouse versus the toy: no significant effect
[2]; Shank3B−/− mice
  duration of close contacts with the mouse versus the toy: increased; also recorded: restored
  preference in time spent in close contact with the mouse versus the toy: increased; also recorded: restored
[3]; bromide 250 mg/kg i.p. daily
  number of following episodes: normalized
  number of grooming episodes: reduced
  number of grooming episodes occurring after a social contact: reduced
  number of, time spent in and duration of paw contacts: normalized
  time spent in nose contact and duration of nose contacts: normalized
  time spent in social contact: normalized
[3]; [7]
  sociability parameters (overall): efficiently restores
[4]; bromide 250 mg/kg i.p. daily
  number of following episodes: restored to wild-type levels; also recorded: reduced
  number of grooming episodes: reduced
  number of grooming episodes occurring after a social contact: reduced
  number of, time spent in and duration of paw contacts: restored to wild-type levels; also recorded: reduced
  time spent in nose contact, number and duration of nose contacts: restored to wild-type levels; also recorded: reduced
[4]; [7]
  sociability parameters (overall): efficiently restores
[5]; Example 2, FIG. 13A, male mutants, both doses
  number of nose contacts and following episodes: increased
[5]; Example 2, FIG. 13A, male wild-type and knockout mice
  total amount of time spent in social contact: increased
[5]; Example 2, FIG. 13B, female mutant mice only, dose dependent
  total time in social contact, number of nose contacts and following episodes: increased
[5]; Example 2, Oprm1 null mice, bromide 250 mg/kg, more in males than females
  number of rearing episodes (activity): increased
[5]; Example 2, Oprm1−/− mice, bromide 250, 500 mg/kg
  social interaction (overall): able to restore social interaction
[5]; [8]
  number of following episodes: increasing
  number, time spent in and duration of nose and paw contacts: increasing
  time spent in close contact: increasing
[5]; Example 2, Oprm1−/− mice, effects since 250 mg/kg in males, only at the highest dose in females
  gender influence on the increase of social interaction parameters: more significantly in males than in females
[5]; [9]
  duration of grooming episodes: reduced
  number of grooming episodes: reduced
  number of grooming episodes occurring immediately after a close contact: reduced
  time spent grooming: reduced
[5]; [10]
  direct social interaction (overall): can restore direct social interaction; also recorded: significantly improved social interaction; also recorded: increased direct social interaction
  number of following episodes: dose-dependently increasing; also recorded: increased
  number of grooming episodes: reduced
  number of grooming episodes occurring immediately after a social contact: reduced
  number, time spent in and duration of nose and paw contacts: dose-dependently increasing; also recorded: increased
  total time spent in social contact: dose-dependently increasing; also recorded: increased
[5]; Oprm1−/− mice, bromide 250 and 500 mg/kg i.p. daily
  efficiency on social interaction parameters in male compared with female mice: more efficient in increasing social interaction parameters
[5]; [11]
  increases in social contact time, nose contacts, following episodes and paw contacts, bromide compared with bumetanide: bigger increases
  suppressive effects on grooming episodes incl. those after a social contact, bromide compared with bumetanide: comparable
[5]; Oprm1−/− mice, social interaction and three-chamber tests, bumetanide at 0.5 mg/kg, 0.5 mg/kg
  beneficial effects on sociability, bromide compared with bumetanide: more significant; also recorded: superior efficacy
[6]
  number of grooming episodes: increased grooming episodes in wild-type (WT) animals without effects in mu opioid receptor knockouts
  number of head shakes: increased the number of head shakes in control mice to the level of mutants
[6]; listed as Bromide
  number of grooming episodes: increased the number of grooming episodes and male and female wild-type mice, but not in mutants
  number of head shakes: increased the number of head shakes in male and female wild-type mice, not in mutants
